Here are results for 38 molecules from patent publication US12600714B2, “Substituted pyrazinecarboxamide compounds for treating diseases related to EGFR mutation” (WIGEN BIOMEDICINE TECHNOLOGY (SHANGHAI) CO., LTD., priority 2020, dated 2026).

SMILES strings stand for the structures.

The subject of the assay is EGFR (del19/T790M/C797S). The assay is described as follows: HTRF inhibitory activity assay against EGFR (del19/T790M/C797S) enzyme. The format is biochemical. On the procedure: Inhibitory Activity Assay of the Compounds Disclosed Herein Against EGFR (del19/T790M/C797S), EGFR (L858R/T790M/C797S) or EGFR (WT) Enzymes
The inhibitory effects of the compounds against EGFR (del19/T790M/C797S), EGFR (L858R/T790M/C797S) or EGFR (WT) enzyme activity was determined by using HTRF. The procedures are as follows:
The WT or mutant EGFR proteins were incubated with a serially diluted compounds at 28° C. for 10 min followed by addition of biotin-labeled general tyrosine kinase (TK) substrate and ATP. The mixture was incubated at room temperature for 40 min for reaction. After the termination of the reaction, an Eu3+-Cryptate-labeled antibody against TK and streptavidin-XL665 were added and the mixture was incubated at room temperature for 60 min. The luminescences at 615 nm and 665 nm were detected and the ratio of 665/615 was calculated to quantify the level of TK substrate phosphorylation. Inhibition % and IC50 of the compounds were calculated relative to the control group.
In the case of `CN1CCN(C2CCN(c3ccc(Nc4nc(N[C@H]5C[C@H](O)C5)c(-c5cccc6[nH]ccc56)nc4C(N)=O)cc3F)CC2)CC1` [compound 534], the “EGFR (del19/T790M/C797S) inhibition (%) (0.3 nM compound)” value (“EGFR (del19/T790M/C797S) inhibition (%)” for short) is “+++ (+++ indicates an inhibition greater than 50%.)”.

For the molecule `CN1CCN(C2CCN(c3ccc(Nc4nc(NC5COC5)c(-c5cccc6[nH]ccc56)nc4C(N)=O)cc3F)CC2)CC1` [compound 595], the “EGFR (del19/T790M/C797S) inhibition (%)” value is on record as “+++ (+++ indicates an inhibition greater than 50%.)”.

As to `CN1CCN(C2CCN(c3ccc(Nc4nc(NC5CCC(O)C5)c(-c5cc[nH]n5)nc4C(N)=O)cc3F)CC2)CC1` (centres unmarked) [compound 623], the “EGFR (del19/T790M/C797S) inhibition (%)” value was “+++ (+++ indicates an inhibition greater than 50%.)”.

Turning to `CN1CCN(C2CCN(c3ccc(Nc4nc(N[C@H]5C[C@@H](O)C5)c(-c5cc[nH]n5)nc4C(N)=O)cc3)CC2)CC1` [compound 614], the “EGFR (del19/T790M/C797S) inhibition (%)” value is given as “+++ (+++ indicates an inhibition greater than 50%.)”.

As for `COc1cccc(-c2nc(C(N)=O)c(Nc3ccc(N4CCC(N5CCN(C)CC5)CC4)cc3)nc2NC2CCOCC2)c1` [compound 51], the “EGFR (del19/T790M/C797S) inhibition (%)” value is “+ (+ indicates an inhibition less than or equal to 20%)”.

On to `CN1CCN(C2CCN(c3ccc(Nc4nc(NC5CCOCC5)c(-c5cccc(C#N)c5)nc4C(N)=O)cc3)CC2)CC1` [compound 47], for which the “EGFR (del19/T790M/C797S) inhibition (%)” value is “+ (+ indicates an inhibition less than or equal to 20%)”.

`CN1CCN(C2CCN(c3ccc(Nc4nc(NCCCS(C)(=O)=O)c(-c5ccccc5)nc4C(N)=O)cc3)CC2)CC1` [compound 27]: the “EGFR (del19/T790M/C797S) inhibition (%)” value is “+ (+ indicates an inhibition less than or equal to 20%)”.

Take `CN1CCN(C2CCN(c3ccc(Nc4nc(N5CCC(O)C5)c(-c5ccccc5)nc4C(N)=O)cc3)CC2)CC1` (centres unmarked) [compound 29]: the “EGFR (del19/T790M/C797S) inhibition (%)” value was “++ (++ indicates an inhibition from 20% to 50%)”.

`CN1CCN(C2CCN(c3ccc(Nc4nc(NC5CCOCC5)c(-c5ccc(Cl)cc5)nc4C(N)=O)cc3)CC2)CC1` [compound 65]: the “EGFR (del19/T790M/C797S) inhibition (%)” value is given as “++ (++ indicates an inhibition from 20% to 50%)”.

As to `COc1cc(Nc2nc(NC3CCOCC3)c(-c3ccccc3)nc2C(N)=O)ccc1N1CCC(N2CCN(C)CC2)CC1` [compound 112], the “EGFR (del19/T790M/C797S) inhibition (%)” value is given as “+ (+ indicates an inhibition less than or equal to 20%)”.

In the case of `COc1cc(-c2nc(C(N)=O)c(Nc3ccc(N4CCC(N5CCN(C)CC5)CC4)cc3)nc2NC2CCOCC2)ccn1` [compound 67], the “EGFR (del19/T790M/C797S) inhibition (%)” value is on record as “+ (+ indicates an inhibition less than or equal to 20%)”.

As for `COc1nc(Nc2ccc(N3CCC(N4CCN(C)CC4)CC3)cc2)c(C(N)=O)nc1-c1ccccc1` [compound 19, 5-methoxy-3-((4-(4-(4-methylpiperazin-1-yl)piperidin-1-yl)phenyl)amino)-6-phenylpyrazine-2-carboxamide], the “EGFR (del19/T790M/C797S) inhibition (%)” value was “+ (+ indicates an inhibition less than or equal to 20%)”.

Turning to `CC(C)Nc1nc(Nc2ccc(N3CCC(N4CCN(C)CC4)CC3)c(F)c2)c(C(N)=O)nc1-c1ccncc1` [compound 635], the “EGFR (del19/T790M/C797S) inhibition (%)” value is “+++ (+++ indicates an inhibition greater than 50%.)”.

`CN1CCN(C2CCN(c3ccc(Nc4nc(OCC(F)(F)F)c(-c5ccccc5)nc4C(N)=O)cc3)CC2)CC1` [compound 25]: the “EGFR (del19/T790M/C797S) inhibition (%)” value was “+ (+ indicates an inhibition less than or equal to 20%)”.

Turning to `CN1CCN(C2CCN(c3ccc(Nc4nc(NC5CC5)c(-c5cccc6[nH]ccc56)nc4C(N)=O)cc3F)CC2)CC1` [compound 531], the “EGFR (del19/T790M/C797S) inhibition (%)” value is reported as “+++ (+++ indicates an inhibition greater than 50%.)”.

Take `CN1CCN(C2CCN(c3ccc(Nc4nc(NC5COC5)c(-c5ccnc6[nH]ccc56)nc4C(N)=O)cc3)CC2)CC1` [compound 596]: the “EGFR (del19/T790M/C797S) inhibition (%)” value is on record as “+++ (+++ indicates an inhibition greater than 50%.)”.

With `CN1CCN(C2CCN(c3ccc(Nc4nc(N5CCCC5)c(-c5ccccc5)nc4C(N)=O)cc3)CC2)CC1` [compound 17], the “EGFR (del19/T790M/C797S) inhibition (%)” value is listed as “+ (+ indicates an inhibition less than or equal to 20%)”.

As for `NC(=O)c1nc(-c2ccccn2)c(NC2CCOCC2)nc1Nc1ccc(N2CCC(N3CCN(C4CC4)CC3)CC2)cc1` [compound 207], the “EGFR (del19/T790M/C797S) inhibition (%)” value is recorded as “++ (++ indicates an inhibition from 20% to 50%)”.

Take `Cc1cnccc1-c1nc(C(N)=O)c(Nc2ccc(N3CCC(N4CCN(C)CC4)CC3)cc2)nc1NC1CCOCC1` [compound 56]: the “EGFR (del19/T790M/C797S) inhibition (%)” value is recorded as “+ (+ indicates an inhibition less than or equal to 20%)”.

On to `CN(C)CCNc1nc(Nc2ccc(N3CCC(N4CCN(C)CC4)CC3)cc2)c(C(N)=O)nc1-c1ccccc1` [compound 28], for which the “EGFR (del19/T790M/C797S) inhibition (%)” value is reported as “+ (+ indicates an inhibition less than or equal to 20%)”.

In the case of `CN1CCN(C2CCN(c3ccc(Nc4nc(Oc5ccccc5)c(-c5ccccc5)nc4C(N)=O)cc3)CC2)CC1` [compound 6], the “EGFR (del19/T790M/C797S) inhibition (%)” value is “+ (+ indicates an inhibition less than or equal to 20%)”.

For `CN1CCN(C2CCN(c3ccc(Nc4nc(NC5CCOCC5)c(-c5ccccc5Cl)nc4C(N)=O)cc3)CC2)CC1` [compound 63], the “EGFR (del19/T790M/C797S) inhibition (%)” value is reported as “+ (+ indicates an inhibition less than or equal to 20%)”.

In the case of `CN1CCN(C2CCN(c3ccc(Nc4nc(NC5CCCC5(C)O)c(-c5ccccc5)nc4C(N)=O)cc3)CC2)CC1` (centres unmarked) [compound 8], the “EGFR (del19/T790M/C797S) inhibition (%)” value is “+ (+ indicates an inhibition less than or equal to 20%)”.

For the molecule `CN1CCN(C2CCN(c3ccc(Nc4nc(NC5CCOCC5)c(-c5ccn(C)c(=O)c5)nc4C(N)=O)cc3)CC2)CC1` [compound 106], the “EGFR (del19/T790M/C797S) inhibition (%)” value is “+ (+ indicates an inhibition less than or equal to 20%)”.

Consider `CN1CCN(C2CCN(c3ccc(Nc4nc(N[C@H]5CC[C@@H](O)C5)c(-c5ccccc5)nc4C(N)=O)cc3)CC2)CC1` [compound 139, 5-(((1S,3R)-3-hydroxycyclopentyl)amino)-3-((4-(4-(4-methylpiperazin-1-yl)piperidin-1-yl)phenyl)amino)-6-phenylpyrazine-2-carboxamide], for which the “EGFR (del19/T790M/C797S) inhibition (%)” value is “++ (++ indicates an inhibition from 20% to 50%)”.

Consider `CN1CCN(C2CCN(c3ccc(Nc4nc(NC5CCOCC5)c(-c5cncnc5)nc4C(N)=O)cc3)CC2)CC1` [compound 72], for which the “EGFR (del19/T790M/C797S) inhibition (%)” value is recorded as “+ (+ indicates an inhibition less than or equal to 20%)”.

As for `CN1CCN(C2CCN(c3ccc(Nc4nc(N[C@H]5CCOC5)c(-c5ccccc5)nc4C(N)=O)cc3)CC2)CC1` [compound 70], the “EGFR (del19/T790M/C797S) inhibition (%)” value is “+ (+ indicates an inhibition less than or equal to 20%)”.

As for `CN1CCN(C2CCN(c3ccc(Nc4nc(NC5CCOCC5)c(-c5cccc(Cl)c5)nc4C(N)=O)cc3)CC2)CC1` [compound 61], the “EGFR (del19/T790M/C797S) inhibition (%)” value is recorded as “++ (++ indicates an inhibition from 20% to 50%)”.

As to `CN1CCN(C2CCN(c3ccc(Nc4nc(NC5CC6(COC6)C5)c(-c5ccnc6[nH]ccc56)nc4C(N)=O)cc3)CC2)CC1` [compound 629], the “EGFR (del19/T790M/C797S) inhibition (%)” value is “+++ (+++ indicates an inhibition greater than 50%.)”.

Regarding `CN1CCN(C2CCN(c3ccc(Nc4nc(N5CCCCC5)c(-c5ccccc5)nc4C(N)=O)cc3)CC2)CC1` [compound 15], the “EGFR (del19/T790M/C797S) inhibition (%)” value was “+ (+ indicates an inhibition less than or equal to 20%)”.

For the molecule `CN1CCN(C2CCN(c3ccc(Nc4nc(NC5CCC5)c(-c5ccncc5)nc4C(N)=O)cc3)CC2)CC1` [compound 638], the “EGFR (del19/T790M/C797S) inhibition (%)” value is “+++ (+++ indicates an inhibition greater than 50%.)”.

`Cc1cc(Nc2nc(NC3CCOCC3)c(-c3ccncc3)nc2C(N)=O)ccc1N1CCC(N2CCN(C3CC3)CC2)CC1` [compound 146]: the “EGFR (del19/T790M/C797S) inhibition (%)” value was “++ (++ indicates an inhibition from 20% to 50%)”.

As for `CN1CCN(C2CCN(c3ccc(Nc4nc(NC5CC5)c(-c5ccncc5)nc4C(N)=O)cc3F)CC2)CC1` [compound 632], the “EGFR (del19/T790M/C797S) inhibition (%)” value is recorded as “+++ (+++ indicates an inhibition greater than 50%.)”.

As to `CN1CCN(C2CCN(c3ccc(Nc4nc(NC5CC5)c(-c5ccncc5)nc4C(N)=O)cc3)CC2)CC1` [compound 631], the “EGFR (del19/T790M/C797S) inhibition (%)” value is reported as “+++ (+++ indicates an inhibition greater than 50%.)”.

Consider `CN1CCN(C2CCN(c3ccc(Nc4nc(NC5CCOCC5)c(-c5cccc(N)c5)nc4C(N)=O)cc3)CC2)CC1` [compound 92], for which the “EGFR (del19/T790M/C797S) inhibition (%)” value was “++ (++ indicates an inhibition from 20% to 50%)”.

As for `CN1CCN(C2CCN(c3ccc(Nc4nc(NC5CCOCC5)c(C5=CCNCC5)nc4C(N)=O)cc3)CC2)CC1` [compound 109], the “EGFR (del19/T790M/C797S) inhibition (%)” value is reported as “+ (+ indicates an inhibition less than or equal to 20%)”.

As for `CN1CCN(C2CCN(c3ccc(Nc4nc(N[C@@H]5CC[C@H](O)C5)c(-c5ccccc5)nc4C(N)=O)cc3)CC2)CC1` [compound 136, 5-(((1R,3S)-3-hydroxycyclopentyl)amino)-3-((4-(4-(4-methylpiperazin-1-yl)piperidin-1-yl)phenyl)amino)-6-phenylpyrazine-2-carboxamide], the “EGFR (del19/T790M/C797S) inhibition (%)” value is given as “++ (++ indicates an inhibition from 20% to 50%)”.

Turning to `CN1CCN(C2CCN(c3ccc(Nc4nc(NC5CCOCC5)c(-c5cccc(S(C)(=O)=O)c5)nc4C(N)=O)cc3)CC2)CC1` [compound 44], the “EGFR (del19/T790M/C797S) inhibition (%)” value is on record as “+ (+ indicates an inhibition less than or equal to 20%)”.
